Laboratory results published in paper PMC5766510, “Development of a PET radioligand for potassium channels to image CNS demyelination” (Scientific Reports, 2018).
Read-outs that look alike come from different tables or passages of the source. Blank lines part the entries; values can stand above or below the compound they belong to.

Assays:
[1] = tested on: voltage-gated K^+ channels in demyelinated axons; format: in vivo
From the text: Thirty minutes post-injection of the radiolabeled drug, the mice were euthanized and their brains dissected without perfusion to prevent washout of the drug. After dissection, the brains were frozen, cut into thin sections and collected on glass slides. The brain slices were then apposed to autoradiography film to reveal the distribution of the drug in the brain at the time of death. After autoradiography, the same brain sections were stained with the myelin-specific dye Luxol fast blue (LFB).
Number of animals per group was determined using statistical power analysis (α = 0.05, power = 0.80). […] The brains were embedded in Optimal Cutting Temperature (Tissue-Tek), frozen in dry ice and stored at −80 °C. Frozen brains were sliced in a cryostat at 20 μm thickness, the sections mounted on Superfrost Plus slides (Fisher) and allowed to dry at room temperature for at least 30 min. Next, the slides were placed in a cassette in front of autoradiography film (Denville scientific) sealed in the dark at −80 °C for 14–21 days. After that time the cassette was allowed to warm up to room temperature and the films developed inside a dark room using a film processor (Konica). The films were then scanned using an EPSON Perfection V750 scanner (Positive film mode, 8-bit grayscale, 1,200 dpi). After digitizing the radiographs, the same slides were stained using Luxol fast blue (LFB) and cresyl violet. For [^18F]3-F-4-AP autoradiography in rats we injected 1–2 μCi per g. After euthanasia, the brains were dissected without perfusion, frozen in dry ice and sliced in a cryostat at −20 °C.
1 min) and left in LFB solution (0.1 g LFB, 100 mL of 95% EtOH, 0.5 mL glacial acetic acid) overnight at 56 °C. Next morning, the slides were rinsed in 95% EtOH and ddH2O to remove the excess of dye, differentiated in lithium carbonate solution (0.05 g in 100 mL) for 30 s, 70% EtOH for 30 s and rinsed in ddH2O. The differentiation steps were repeated until the gray matter was clear and the white matter appeared blue and sharply defined. Afterwards, the slides were counterstained in cresyl violet (0.1 g in 100 mL of ddH2O, 0.1 mL acetic acid) for 30 s. The slides were differentiated in 95 % EtOH for 5 min and dehydrated (100% EtOH, 2x 5 min ea; 100 % xylene, 2 x, 5 min ea) before mounting with permount (Electron Microscopy Sciences). After staining, images of the slides were collected using the CRi Pannoramic Whole Slide Scanner (Perkin Elmer) equipped with a 20x objective.
Image analysis: The histology images were superimposed on the autoradiography images using Photoshop. The histology images were used to precisely outline the corpus callosum, the cortex and a ~1.5 mm-wide area around the brain (background). The autoradiographic signal from each area was quantified. The background signal was subtracted from the all the areas and defined as zero. The signal intensity of the cortex was set as 1.0 and the signal intensity of the corpus callosum was measured relative to the cortex. Color images were created using the 6-shades look up table (LUT) in ImageJ. […]

[2] = tested on: K^+ channels in explanted mouse optic nerves; assay: Compound action potential (CAP) of dissected mouse optic nerves; details: for IC50: CAP enhancement, given as IC50; for IC50 / activity in enhancing the CAP: dysmyelinated (Shiverer) optic nerves; for times less potent: from EC50 values, versus 4-AP and 3-F-4-AP
Protocol: Therefore, we tested the effects of these compounds on the compound action potential (CAP) of dysmyelinated optic nerves from control and Shiverer mice (Fig. 2E).
Optic nerves were dissected from 12–16 week old Shiverer (Mbp^shi/shi) and control mice (Mbp^+/shi and Mbp^+/+). Compound action potentials (CAP) were recorded using suction electrodes as described by Stys et al.[91]. See SI for additional details.
(§1) CI95 = [Upper Limit. Lower Limit]; where Upper Limit = 10^(logEC50+s.d.) and Lower Limit = 10^(logEC50−s.d.). […]
Dissection of optic nerves: Optic nerves were dissected from 12-16 week old Shiverer (Mbpshi/shi) and control mice (Mbp+/shi and Mbp+/+). Mice were euthanized by CO2 overdose and the optic nerves were quickly dissected between the eyeball and the optic chiasm. The nerves […]
Optic nerve electrophysiology: Compound action potentials (CAP) from dysmyelinated nerves (Shiverer mice, Mbpshi/shi) and myelinated nerves (litermate controls, Mbp+/shi and Mbp+/+) were […]
between two suction electrodes (stimulus and recording electrodes) forming a tight seal on each end. Two additional electrodes were placed in the bath for reference. A supramaximal pulse (250 mV, 20 μs) was applied at the stimulating end of the nerve. The resulting CAP was amplified from the recording electrode using a high impedance low-noise amplifier (EG&G Princeton Applied Research Corporation) sampled at 100 kHz and filtered at 10 kHz. To assess […]
concentrations to the recording chamber after the CAP was allowed to stabilize for 5 min while […]
pulsing repeatedly. After each measurement, the chamber was washed for 5 min (flow 1 […]
mL/min) with oxygenated aCSF. […]
conduction and the temperature was monitored throughout the experiment. CAP recordings were acquired with a SBC6711 board (Innovative Integration) controlled by in-house written software. Analysis of the traces was done using an in-house software. The half-maximal […]
amplitude vs. concentration and fitted to the Hill equation using Origin. […]
Compound action potential of nerve recorded by suction electrode: a theoretical and experimental analysis. […]

[3] = target: non-inactivating Shaker channel from D. melanogaster (Drosophila melanogaster, UniProt P08510, DEL6-46); assay: cell-based
Protocol: See SI for additional details.
as §1
exchanging the external solution (top and guard chambers) several times. After application, cells were voltage-clamped at least 5 min at 0mV, then voltage-clamped at -80mV for 1-2 min.
K+ currents were generated by applying series of 50 ms pulses from -70 mV to +40 mV in increments of 10 mV. The effect of the drug was assessed by measuring the relative intensity of the K+ current before and after applying varying drug concentration at a constant voltage (typically +20 mV) and at the end of the test-pulse. Data acquisition and analysis of the traces was performed using Gpatch software (Department of Anesthesiology, University of California, […]
Los Angeles). […]

[4] = tested on: C57Bl/6 J mice; assay: In vivo effects (signs of neuroexcitation) after intraperitoneal injection; details: mouse, different doses
Protocol: In this experiment, we injected each drug intraperitoneally at different concentrations into mice and looked for signs of neuroexcitation (Fig. 3B).
10-week-old female C57Bl/6 J mice were given an intraperitoneal injection of the drug under investigation and monitored continuously for 4 h. […] At least 72 h passed between injections to the same mice.

[5] = in vitro; details: mouse, microsomes
[6] = relative K^+ current at +20 mV, Hill equation fit, read-out: Half-maximal inhibitory concentration (IC50)

Sequence of non-inactivating Shaker channel from D. melanogaster (P08510 other isoform, or with tags, fused parts or gaps DEL6-46): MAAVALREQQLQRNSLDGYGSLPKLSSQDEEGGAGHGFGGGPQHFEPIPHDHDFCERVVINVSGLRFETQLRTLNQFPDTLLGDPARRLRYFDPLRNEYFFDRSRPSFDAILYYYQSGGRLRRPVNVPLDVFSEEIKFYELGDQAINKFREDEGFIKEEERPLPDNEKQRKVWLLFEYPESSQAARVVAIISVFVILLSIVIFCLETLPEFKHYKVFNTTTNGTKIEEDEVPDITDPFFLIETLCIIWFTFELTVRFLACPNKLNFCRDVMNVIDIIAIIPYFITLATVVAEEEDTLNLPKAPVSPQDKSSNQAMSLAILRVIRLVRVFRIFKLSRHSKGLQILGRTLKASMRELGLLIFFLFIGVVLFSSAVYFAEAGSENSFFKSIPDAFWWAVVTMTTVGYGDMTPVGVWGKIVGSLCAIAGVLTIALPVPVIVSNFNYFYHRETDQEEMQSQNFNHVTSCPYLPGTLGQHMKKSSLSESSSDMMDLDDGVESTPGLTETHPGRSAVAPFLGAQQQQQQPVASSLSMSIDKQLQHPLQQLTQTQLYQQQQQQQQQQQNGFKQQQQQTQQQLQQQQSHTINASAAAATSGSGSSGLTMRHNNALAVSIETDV

Structure (SMILES): O=[14CH]C[C@@H](O)[C@H](O)[C@H](O)CO [2-DG, [1-^14C]2-deoxy-D-glucose, reference compound]
difference in brain distribution between wild type and Shiverer mice ([1]; mouse, in vivo): no differences were seen

Structure (SMILES): Nc1ccncc1CF [3-FMe-4-AP, 3-fluoromethyl-4-aminopyridine]
IC50 [2]: 0.386 mM
times less potent [2]: 4–6 times
IC50 [3, 6]: 7.45 mM
signs of neuroexcitation, summary in words relative to 4-AP [4]: half as potent as 4-AP

Structure (SMILES): Nc1c[14cH]n[14cH]c1F [[^14C]3-F-4-AP, [2,6-^14C]4-amino-3-fluoropyridine]
relative autoradiographic signal intensity in corpus callosum ([1]; Shiverer (Mbp^shi/shi) mice, normalized to cortex): 0.878 ± 0.043
increase in signal, Shiverer versus control white matter ([1]; corpus callosum): 29%
relative autoradiographic signal intensity in myelinated white matter ([1]; wild-type/control mice, normalized to cortex (gray matter = 1.0)): 0.679 ± 0.046

Structure (SMILES): Nc1ccncc1CO [3-HOMe-4-AP, 3-hydroxymethyl-4-aminopyridine, reference compound]
IC50 [2]: 0.386 mM
times less potent [2]: 4–6 times
IC50 [3]: 4.38 mM
signs of neuroexcitation, summary in words relative to 4-AP [4]: did not cause any effects at doses up to 20 times greater

Structure (SMILES): Nc1ccncc1CCF [3-FEt-4-AP, 3-fluoroethyl-4-aminopyridine]
activity in enhancing the CAP [2]: inactive
IC50 [3]: > 10 mM

Structure (SMILES): Nc1ccnc(F)c1 [2-F-4-AP, 2-fluoro-4-aminopyridine]
activity in enhancing the CAP [2]: inactive
IC50 [3, 6]: > 10 mM
signs of neuroexcitation, summary in words relative to 4-AP [4]: did not cause any effects at doses up to 20 times greater

half-life [5]: 25.6 ± 2.1 min
Structure (SMILES): CC(C)NCC(O)COc1cccc2ccccc12 (centres unmarked) [Propranolol, propranolol]

Structure (SMILES): Nc1c[14cH]n[14cH]c1 [[^14C]4-AP, [2,6-^14C]4-aminopyridine, reference compound]
autoradiographic signal in the demyelinated area ([1]; LPC-injected mice, 3 days after injection, normalized to cortex): 0.733 ± 0.047
autoradiographic signal in the contralateral control area ([1]; LPC-injected mice, opposite hemisphere, normalized to cortex): 0.507 ± 0.070
